Laboratory results from ChEMBL document CHEMBL1201862, “PubChem BioAssay data set” (2004).
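Grown in 96-well plates, cells were treated for 48 hours with each compound at five concentrations. Insufficient inhibition: endpoint recorded as highest concentration tested. Here, GI50 denotes the concentration required for 50% inhibition of growth.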 Active and inactive are the calls of the source. Rule as the data show it: active = GI50 up to about 1.1 µM and inactive = higher.

What was measured:
Test in all cases: growth of human tumour cells (NCI), 48 h
HL-60 = tested on: HL-60
NCI-H23 = tested on: NCI-H23
KM12 = tested on: KM12
SF-268 = tested on: SF-268
LOX IMVI = tested on: LOX IMVI
MOLT-4 = tested on: MOLT-4
RXF 393 = tested on: RXF 393
CCRF-CEM = tested on: CCRF-CEM
786-0 = tested on: 786-0
HT-29 = tested on: HT-29
HCT-116 = tested on: HCT-116
A549 = tested on: A549
OVCAR-5 = tested on: OVCAR-5
SK-OV-3 = tested on: SK-OV-3
NCI-H226 = tested on: NCI-H226
RPMI-8226 = tested on: RPMI-8226
IGROV-1 = tested on: IGROV-1
SR = tested on: SR

Measured: GI50

CN(/N=C\c1ccnc2ccccc12)c1ccc([N+](=O)[O-])cc1
inactive: HL-60 37.1 µM | NCI-H23 > 100 µM | KM12 16 µM | SF-268 9.51 µM | LOX IMVI 8.2 µM | MOLT-4 > 100 µM | RXF 393 > 10 µM | CCRF-CEM 19.5 µM | 786-0 > 100 µM | HT-29 > 100 µM | HCT-116 11.6 µM | A549 > 100 µM | OVCAR-5 > 100 µM | SK-OV-3 > 100 µM | NCI-H226 > 100 µM | RPMI-8226 8.26 µM | IGROV-1 > 100 µM

O=C(CC(=O)N1N=C(c2ccccc2)C(/N=N/c2ccc(C(=O)O)cc2)C1=O)Nc1ccc(F)cc1 (stereo not drawn)
inactive: HL-60 22 µM | NCI-H23 23.4 µM | SF-268 15.9 µM | LOX IMVI 12.4 µM | RXF 393 4.01 µM | 786-0 21.2 µM | HT-29 48.9 µM | HCT-116 12.2 µM | A549 39.2 µM | OVCAR-5 52.1 µM | SK-OV-3 12.2 µM | NCI-H226 6.15 µM | RPMI-8226 27.5 µM | IGROV-1 22.5 µM

Cc1cc(-c2ccccc2)nc(Nc2cc3ccccc3[nH]2)n1
inactive: HL-60 > 100 µM | NCI-H23 > 100 µM | KM12 > 100 µM | SF-268 > 100 µM | LOX IMVI > 100 µM | MOLT-4 > 100 µM | CCRF-CEM > 100 µM | 786-0 > 100 µM | HT-29 > 100 µM | SR > 100 µM | HCT-116 > 100 µM | A549 > 100 µM | OVCAR-5 > 100 µM | SK-OV-3 > 100 µM | NCI-H226 > 100 µM | RPMI-8226 > 100 µM | IGROV-1 > 100 µM

CN1c2ccccc2NC(CC(=O)O)C2CC=CN21 (stereo not drawn)
inactive: HL-60 > 100 µM | NCI-H23 > 100 µM | KM12 > 100 µM | SF-268 > 100 µM | LOX IMVI > 100 µM | MOLT-4 > 100 µM | RXF 393 > 100 µM | CCRF-CEM > 100 µM | 786-0 > 100 µM | HT-29 > 100 µM | A549 > 100 µM | OVCAR-5 > 100 µM | SK-OV-3 > 100 µM | RPMI-8226 > 100 µM | IGROV-1 > 100 µM

Cc1cccc(/C=N/N=C(\N)NO)n1
inactive: HL-60 32.4 µM | NCI-H23 > 100 µM | KM12 14.4 µM | SF-268 16.1 µM | LOX IMVI 5.73 µM | MOLT-4 51.4 µM | RXF 393 > 100 µM | CCRF-CEM 42.5 µM | 786-0 36.8 µM | HT-29 48.4 µM | SR 42.4 µM | HCT-116 > 100 µM | A549 13.4 µM | SK-OV-3 19.9 µM | IGROV-1 7.26 µM

COc1cccc(NC(=O)CC(=O)NNCC(=O)Nc2nnc(-c3ccc(N(CCC#N)S(=O)(=O)c4ccccc4)cc3)s2)c1
inactive: NCI-H23 48.3 µM | KM12 63.5 µM | SF-268 82.4 µM | LOX IMVI 75.7 µM | MOLT-4 35.7 µM | RXF 393 56.4 µM | SR 28.8 µM | HCT-116 63.7 µM | A549 67.5 µM | OVCAR-5 78.3 µM | SK-OV-3 30.5 µM | NCI-H226 > 100 µM | RPMI-8226 66.4 µM | IGROV-1 96.4 µM

COc1cccc2c1C1(O)C2CCCC12OCCCO2 (stereo not drawn)
inactive: HL-60 > 100 µM | NCI-H23 > 100 µM | KM12 > 100 µM | SF-268 > 100 µM | LOX IMVI > 100 µM | MOLT-4 > 100 µM | RXF 393 > 100 µM | CCRF-CEM > 100 µM | 786-0 > 100 µM | HT-29 > 100 µM | HCT-116 > 100 µM | A549 > 100 µM | OVCAR-5 > 100 µM | SK-OV-3 > 100 µM | NCI-H226 > 100 µM | RPMI-8226 > 100 µM | IGROV-1 > 100 µM

Cc1c2cnccc2c(C)c2c1c1ccccc1n2CCCCCCCl
inactive: HL-60 10.1 µM | NCI-H23 38.6 µM | KM12 29.9 µM | SF-268 > 45 µM | LOX IMVI 30.4 µM | MOLT-4 19.9 µM | RXF 393 > 50 µM | CCRF-CEM 32.7 µM | HT-29 29.6 µM | HCT-116 23.6 µM | A549 > 48.2 µM | OVCAR-5 > 46.2 µM | SK-OV-3 > 50 µM | NCI-H226 22.5 µM | RPMI-8226 13.2 µM | IGROV-1 > 45.7 µM

O=[N+]([O-])C=C1c2ccccc2-c2ccccc21
inactive: HL-60 4.01 µM | NCI-H23 16.8 µM | KM12 17.3 µM | SF-268 19.9 µM | LOX IMVI 16.6 µM | MOLT-4 3.7 µM | RXF 393 17.5 µM | CCRF-CEM 4.91 µM | 786-0 16.7 µM | HT-29 20 µM | SR 4.65 µM | HCT-116 4.75 µM | A549 19.9 µM | OVCAR-5 17.4 µM | NCI-H226 > 10 µM | RPMI-8226 2.18 µM | IGROV-1 > 10 µM

COc1ccc(C(O)C(c2ccc(OCc3ccccc3)cc2)c2ccc(OCc3ccccc3)cc2)cc1 (stereo not drawn)
inactive: HL-60 > 100 µM | NCI-H23 > 100 µM | KM12 > 100 µM | SF-268 > 100 µM | RXF 393 > 100 µM | CCRF-CEM > 100 µM | 786-0 > 100 µM | HT-29 > 100 µM | SR > 100 µM | HCT-116 > 100 µM | A549 > 100 µM | OVCAR-5 > 100 µM | SK-OV-3 > 100 µM | NCI-H226 > 100 µM | RPMI-8226 > 100 µM | IGROV-1 > 100 µM

CCNc1nnc(-c2nsc3ccccc23)s1
inactive: HL-60 > 100 µM | NCI-H23 45.5 µM | KM12 59.7 µM | SF-268 23.5 µM | LOX IMVI > 100 µM | MOLT-4 > 100 µM | RXF 393 32.8 µM | CCRF-CEM > 100 µM | HT-29 26.5 µM | SR > 100 µM | HCT-116 24.7 µM | A549 > 100 µM | OVCAR-5 > 100 µM | RPMI-8226 65.3 µM | IGROV-1 > 100 µM

Nc1ccccc1/C(O)=C1/CCOC1=O
inactive: HL-60 > 100 µM | NCI-H23 > 100 µM | KM12 > 100 µM | SF-268 > 100 µM | MOLT-4 > 100 µM | CCRF-CEM > 100 µM | 786-0 > 100 µM | HT-29 > 100 µM | SR > 100 µM | HCT-116 > 100 µM | A549 > 100 µM | OVCAR-5 > 100 µM | SK-OV-3 > 100 µM | NCI-H226 > 100 µM | RPMI-8226 > 100 µM | IGROV-1 > 100 µM

CN1CC2(CCCCC2)C(O)C12C=CCCC2 (stereo not drawn)
inactive: HL-60 > 100 µM | NCI-H23 > 100 µM | KM12 > 100 µM | SF-268 > 100 µM | LOX IMVI > 100 µM | MOLT-4 > 100 µM | RXF 393 > 100 µM | CCRF-CEM > 100 µM | 786-0 > 100 µM | HT-29 > 100 µM | A549 > 100 µM | SK-OV-3 > 100 µM | NCI-H226 > 100 µM | RPMI-8226 > 100 µM | IGROV-1 > 100 µM

CCOC(=O)C(C)N1C(=O)c2ccccc2S1(=O)=O (stereo not drawn)
inactive: HL-60 > 100 µM | NCI-H23 > 100 µM | KM12 > 100 µM | SF-268 > 100 µM | LOX IMVI > 100 µM | MOLT-4 > 100 µM | CCRF-CEM > 100 µM | HT-29 > 100 µM | HCT-116 > 100 µM | A549 > 100 µM | OVCAR-5 > 100 µM | SK-OV-3 > 100 µM | NCI-H226 > 100 µM | RPMI-8226 > 100 µM | IGROV-1 > 100 µM

[N-]=[N+]=Nc1ccccc1-[n+]1noc([O-])c1Br
inactive: HL-60 > 100 µM | NCI-H23 > 100 µM | KM12 > 100 µM | SF-268 > 100 µM | MOLT-4 > 100 µM | RXF 393 > 100 µM | CCRF-CEM > 100 µM | 786-0 > 100 µM | HT-29 > 100 µM | SR > 100 µM | HCT-116 > 100 µM | A549 > 100 µM | SK-OV-3 > 100 µM | NCI-H226 > 100 µM | RPMI-8226 > 100 µM | IGROV-1 > 100 µM

Cc1nc(-n2nc(-c3ccccc3)cc2-c2ccccc2)sc1C(/C=C/c1ccc([N+](=O)[O-])cc1)=N/NC(N)=S
inactive: HL-60 4.13 µM | NCI-H23 27.8 µM | KM12 21.7 µM | SF-268 31.4 µM | LOX IMVI > 10 µM | MOLT-4 13.6 µM | RXF 393 54.1 µM | CCRF-CEM 22.2 µM | 786-0 18.2 µM | HT-29 23.7 µM | HCT-116 15.8 µM | A549 97.3 µM | OVCAR-5 83.6 µM | SK-OV-3 73.5 µM | NCI-H226 22.8 µM | RPMI-8226 11.9 µM | IGROV-1 35.2 µM

C/C=C1/CCC2c3[nH]c4ccccc4c3CCN2C1 (stereo not drawn)
inactive: HL-60 58.2 µM | NCI-H23 > 100 µM | KM12 > 100 µM | SF-268 > 100 µM | MOLT-4 > 100 µM | RXF 393 > 100 µM | CCRF-CEM > 100 µM | 786-0 > 100 µM | HT-29 45.7 µM | SR > 100 µM | HCT-116 66.5 µM | A549 > 100 µM | OVCAR-5 > 100 µM | SK-OV-3 > 100 µM | NCI-H226 57.5 µM | IGROV-1 > 100 µM
